Test results taken from publication PMC6222509, “Dibasic Derivatives of Phenylcarbamic Acid against Mycobacterial Strains: Old Drugs and New Tricks?” (Molecules : A Journal of Synthetic Chemistry and Natural …, 2018).
Read-outs that look alike come from different tables or passages of the source.

Tests used:
[1] = tested on: M. tuberculosis H37Ra ATCC 25177 (MTa H37Ra); assay: in vitro antimycobacterial MIC, 96-well Middlebrook broth, alamarBlue; format: cell-based, Mycobacterium tuberculosis; conditions: 7-day cultivation, read-out: MIC MTa H37Ra 7-d
Method: In vitro susceptibitity of given mycobacteria to reference drugs isoniazid (INH), ethambutol (EMB), ofloxacin (OFLX) or ciprofloxacin (CPX) was tested as well (Table 6 and Table 7).
A value of a minimum inhibitory concentration (MIC) was the lowest concentration of a tested compound, (i) which inhibited growth of MTv H37Rv, MK 235/80, MK 6509/96 and MA 330/80, respectively; (ii) at which no visible growth of MTa H37Ra, MS, MK DSM as well as MM was observed.
The molecules 1a–p were also in vitro screened against an avirulent M. tuberculosis H37Ra ATCC 25177 (MTa H37Ra), M. kansasii DSM 44162 (MK DSM), M. smegmatis ATCC 700084 (MS) and M. marinum CAMP 5644 (MM), respectively, in the Department of Infectious Diseases and Microbiology (Faculty of Veterinary Medicine, University of Veterinary and Pharmaceutical Sciences in Brno, Czech Republic).
Determination of a minimum inhibitory concentration (MIC) against MTa H37Ra. The mycobacterium was grown on Middlebrook broth (MB; MiddleBrook Pharmaceuticals, Inc., Westlake, TX, USA), supplemented with Oleic-Albumin-Dextrose-Catalase (OADC) supplement (Difco, Lawrence, KS, USA) and salicylate-derived mycobactin J (2 μg/mL; Allied Monitor Inc., Fayette, MO, USA), an iron-binding siderophore.
At log phase growth, a culture sample (10 mL) was centrifuged at 15,000 rpm/20 min using a bench top centrifuge MPW-65R (MPW Med Instruments, Warsaw, Poland). Following removal of the supernatant, a pellet was washed in fresh liquid Middlebrook 7H9GC broth (MiddleBrook Pharmaceuticals, Inc.) and re-suspended in a fresh OADC-supplemented MB (10 mL).
Turbidity was adjusted to match the McFarland standard No. 1 [87] containing approximately 3 × 10^8 Colony Forming Units (CFU) with MB broth. Further 1:20 dilution of the culture was performed in MB broth.
Susceptibility of MTa H37Ra was investigated in a 96-well plate format. In the experiments, sterile deionized water (300 µL) was added to all outer-perimeter wells of the plates to minimize evaporation of the medium in test wells during incubation. Each evaluated compound (100 µL) was incubated with MTa H37Ra (100 µL). Dilutions of each compound were prepared in triplicate and final concentrations varied from 1000 μg/mL to 8 μg/mL. All tested molecules were dissolved in DMSO (Sigma-Aldrich, Irvine, UK), and subsequent dilutions were made in supplemented MB broth. The plates were sealed with parafilm and incubated at 37 °C for 7 days.
Following incubation, 10% addition a water-soluble dye, the alamarBlue reagent (AbD Serotec, Kidlington, UK) was mixed into each well. This resaurin-based reagent served as an oxidation-reduction indicator of metabolic function and cellular health in cell viability bioassays.
Absorbance readings at 570 nm and 600 nm were taken, initially for background subtraction and after 24h re-incubation. The subtraction is necessary for strongly colored compounds, where the color may interfere with the interpretation of any color change. For non-interfering compounds, a blue color in a well was interpreted as absence of growth and pink color was scored as growth.
The minimum inhibitory concentration (MIC) was defined as the lowest concentration of a compound, at which no visible bacterial growth was observed. In other words, the MIC was the lowest concentration that prevented visual color change from blue to pink.

[2] = tested on: M. kansasii DSM 44162 (MK DSM); assay: in vitro antimycobacterial MIC, broth dilution micromethod in Middlebrook 7H9; format: cell-based; conditions: Mycobacterium kansasii, DSM 44162 / DSM 7, 168 h, read-out: MIC MK DSM 7-d, 7-day cultivation, 37 °C
[3] = tested on: M. smegmatis ATCC 700084 (MS); assay: as above; format: cell-based, Mycobacterium smegmatis; conditions: Mycolicibacterium smegmatis, ATCC700084, 72 h, read-out: MIC MS 3-d, 3-day cultivation, 37 °C
[4] = surface tension, drop count method, Traube stalagmometer; format: physicochemical; conditions: aqueous solution c = 2.0 × 10^−3 M, 21 °C; water γ = 0.07259 N/m
Method: Surface tension (relative surface activity; γ) of aqueous solutions of the compounds 1a–p (c = 2.0 × 10^−3 M) was determined by a drop count technique using a Traube stalagmometer. All evaluated substances were able to decrease surface tension of water (γ = 0.07259 N/m) at 21 °C.
Surface tension (relative surface activity; γ) of the derivatives 1a–p was determined by a drop count method using a glassy Traube stalagmometer (Kavalier Glass, Prague, Czech Republic). Number of drops of compounds’ and reference solutions were counted between upper and lower marks of the stalagmometer. Aqueous solutions of the molecules 1a–p were prepared with distilled, deionized water (c = 2.0 × 10^−3 M). […] The drops were allowed to form at constant temperature 21 °C. The experimental procedure was described in a paper. Current measurements were done in six replicates and average γ values (in N/m units) were reported (Table 1).

[5] = electronic properties, UV/Vis spectrophotometry of methanolic solutions; format: physicochemical; conditions: methanolic solution c = 8.0 × 10^−5 M; for log ε2 (Ch-T): charge-transfer maximum λ2 (Ch-T) = 236–238 nm; for log ε1: λ1 = 208–210 nm; for log ε3: λ3 = 278–280 nm
From the text: Electronic properties of the molecules 1a–p (Table 1) were characterized by logarithms of molar absorption coefficients (log ε) of their methanolic solutions (c = 8.0 × 10^−5 M) investigated in the UV/Vis region of an electromagnetic spectrum.
Positions of these absorption bands in the spectrum were typical for derivatives of (substituted) phenylcarbamic acid and the bands were assigned as first local excitation (λ3), charge-transfer (λ2 (Ch-T)) and second local excitation (λ1) absorption maxima, respectively. The λ1 and λ2 (Ch-T) maxima of 2-alkoxy substituted compounds 1a–d and 1i–l were slightly lower compared to those of their 3-alkoxy substituted positional isomers 1e–h and 1m–p (Table 1), respectively.
The UV/Vis spectra of methanolic solutions of analyzed compounds 1a–p (c = 8.0 × 10^−5 M) were observed on the 8452A Diode Array spectrophotometer HP-8452A (Hewlett-Packard, Palo Alto, CA, USA) at 21 °C. Methanol for UV-spectroscopy (Merck, Darmstadt, Germany) was used for preparation of these solutions. Results of the UV/Vis analyses were collected and stored digitally using the ChemStation controller software (Agilent Technologies, Waldbronn, Germany). The HP-8452A apparatus measured a complete range of compounds’ spectrum from 190 nm to 820 nm.
The log ε values for presently observed absorption maxima were calculated following the Lambert-Beer’s law, which was discussed in [35], for example, and expressed by Equation (16):A = ε × c × l(16) where the A parameter represented absorbance of a compound’s solution, the ε descriptor was a molar absorption coefficient (in L/mol/cm units) and l was path length (in cm units).

Work on `CCCCCCOc1cccc(NC(=O)OC(CN(CCC)CCC)CN2CCCCCC2)c1.Cl.Cl` (centres unmarked) [1o, 1-[2-[({[3-(hexyloxy)phenyl]amino}-carbonyl)oxy]-3-(dipropylammonio)propyl]azepanium dichloride] yielded an MIC ([1]; Mycobacterium tuberculosis, 168 h) of 7.3 µM, an MIC [2] of 3.6 µM and an MIC [3] of 7.3 µM. For the same compound, the “surface tension γ (relative surface activity)” value [4] was 0.05925 N/m, the “log ε2 (Ch-T)” value [5] was 4.01 and the “log ε1” value [5] was 4.52. For the same compound, the “log ε3” value [5] was 3.37.
Compound `CCCCCCCOc1cccc(NC(=O)OC(CN(CCC)CCC)CN2CCCCCC2)c1.Cl.Cl` (centres unmarked) [1p, 1-[2-[({[3-(heptyloxy)phenyl]amino}carbonyl)-oxy]-3-(dipropylammonio)propyl]azepanium dichloride] has an MIC [1] of 7.1 µM, an MIC [2] of 3.6 µM and an MIC [3] of 7.1 µM. The “surface tension γ (relative surface activity)” value [4] was 0.05692 N/m, the “log ε2 (Ch-T)” value [5] was 4.20 and the “log ε1” value [5] was 4.65. The “log ε3” value [5] was 3.56.
